# Columns and labels:
# in vitro [1] = settings: dog, MDCK-MDR1
# in vitro [2] = settings: dog, MDCK-MDR1; remark: listed apart in the source
# physchem [3] = settings: buffer
# [4] = Half life in C57BL6 mouse plasma at 10 mg/kg, po measured up to 24 hrs; format: ADME, organism-based
# [5] = Tmax in C57BL6 mouse plasma at 10 mg/kg, po measured up to 24 hrs; format: ADME, organism-based
# [6] = Cmax in C57BL6 mouse plasma at 10 mg/kg, po measured up to 24 hrs; format: ADME, organism-based; set-up: route oral, dose 10 mg/kg, time <=24
# [7] = AUC (0 to t) in C57BL6 mouse plasma at 10 mg/kg, po measured up to 24 hrs; format: ADME, organism-based; set-up: route oral, dose 10 mg/kg, time <=24
# [8] = AUC (0 to infinity) in C57BL6 mouse plasma at 10 mg/kg, po measured up to 24 hrs; format: ADME, organism-based; set-up: route oral, dose 10 mg/kg, time <=24
# [9] = Unbound brain-to-plasma concentration ratio in C57BL6 mouse plasma at 10 mg/kg, po measured up to 24 hrs; format: ADME, organism-based; settings: brain and plasma, read-out: K(p,uu,brain)
# [10] = Half life in C57BL6 mouse brain at 10 mg/kg, po measured up to 24 hrs; format: ADME, organism-based
# [11] = Tmax in C57BL6 mouse brain at 10 mg/kg, po measured up to 24 hrs; format: ADME, organism-based
# [12] = Cmax in C57BL6 mouse brain at 10 mg/kg, po measured up to 24 hrs; format: ADME, organism-based; set-up: route oral, dose 10 mg/kg, time <=24
# [13] = AUC (0 to t) in C57BL6 mouse brain at 10 mg/kg, po measured up to 24 hrs; format: ADME, organism-based; settings: in vivo
# [14] = AUC (0 to infinity) in C57BL6 mouse brain at 10 mg/kg, po measured up to 24 hrs; format: ADME, organism-based; set-up: route oral, dose 10 mg/kg, time <=24; settings: in vivo
# physchem [15] = settings: buffer, pH 7.4
SMILES,Papp A→B (in vitro [1]),Papp B→A (in vitro [2]),solubility (physchem [3]),half-life [4],Tmax [5],Cmax [6],AUC(0-t) at 24 h [7],AUC(0-inf) [8],Kp uu at 24 h [9],half-life [10],Tmax [11],Cmax [12],AUCt [13],AUC [14],logD (physchem [15])
Oc1nnc(-c2ccc(Cl)c(C(F)(F)F)c2)s1,45 ×10⁻⁶ cm/s,70 ×10⁻⁶ cm/s,22 µM,,,,,,,,,,,,
Oc1nnc(-c2ccc(Cl)c(C(F)(F)F)c2)o1,34 ×10⁻⁶ cm/s,55 ×10⁻⁶ cm/s,710 µM,222 min,30 min,16600 ng/mL,50400 ng·h/mL,63100 ng·h/mL,0.025,138 min,10.2 min,2990 ng/g,8870 ng·h/g,9910 ng·h/g,2.6

# From ChEMBL document CHEMBL4699601, “5-Phenyl-1,3,4-oxadiazol-2(3H)-ones Are Potent Inhibitors of Notum Carboxylesterase Activity Identified by the Optimization of a Crystallographic Fragment Screening Hit” (J Med Chem, 2020)
